“And” between values parts separate entries of the source, which are not always exact repeats. Equal values may be shown once. “Also recorded” adds a separate entry of the source. Read-outs that look alike come from different tables or passages of the source. Blank lines part the entries; values can stand above or below the compound they belong to.
Legend:
T2R38 = target: T1, T2R38 (Homo sapiens, UniProt P59533, A49P/I296V); assay: Single cell calcium imaging, Peakrapid cells (Gα16gustducin44) transiently transfected with T2R38; type: cell-based; conditions: for average calcium response, % of the one induced by 0.1 mM of PTC: dissolved in DMSO 1.5% (209 mM); for specific activation of T2R38: ethanol-solubilized; for response of T2R38: solubilized in the aqueous buffer, 2 mM; for EC50: concentration-response curve, read-out: EC50
T1 construct: leader: first 45 amino acids of rat somatostatin receptor subtype 3 (SSTR3) (N); expressed in transfected cells; host or cells: Peakrapid cells (HEK293 derivative, ATCC CRL-2828) stably expressing Galpha16gustducin44, co-transfected with human RTP4
T1 sequence (P59533 1-333 A49P/I296V): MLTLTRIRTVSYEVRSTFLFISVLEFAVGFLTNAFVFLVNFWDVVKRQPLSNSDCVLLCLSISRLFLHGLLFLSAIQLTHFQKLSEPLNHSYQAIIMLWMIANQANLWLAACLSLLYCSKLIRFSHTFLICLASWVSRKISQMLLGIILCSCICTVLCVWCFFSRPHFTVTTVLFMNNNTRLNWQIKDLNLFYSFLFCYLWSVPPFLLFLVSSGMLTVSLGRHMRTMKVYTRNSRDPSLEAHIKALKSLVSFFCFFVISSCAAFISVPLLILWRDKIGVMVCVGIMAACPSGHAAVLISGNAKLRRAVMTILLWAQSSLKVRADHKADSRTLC
Text: The coding sequences of either the functional (PAV, GenBank accession number AY258597.1) and non-functional (AVI, GenBank accession number AF494231.1) were amplified from human genomic DNA by polymerase chain reaction.
These coding sequences were cloned in a pEFIB backbone vector in translational fusion with the coding sequence of a leader sequence corresponding to the 45 first amino acids of the rat somatostatin receptor subtype 3 [20]. The constructs were verified by sequencing. The coding sequence of RTP4 (Genbank accession number AY562238.1) was amplified from human spleen cDNA and cloned a pCI backbone vector.
The Gα16gustducin44 sequence was generated by swapping the last 132 nucleotides of the G α16 with the corresponding terminal sequence of the Gα-gustducin [21] and was cloned in a pIRES-Puro plasmid. This vector was transfected in the Peakrapid cell line (ATCC reference: CRL-2828™; purchased from LGC Standards SARL, Molsheim, FRANCE), HEK293 cell line derivative, cultured in EMEM culture medium (reference BE12-136F; Lonza, Vervier, BELGIUM) supplemented with 10% of foetal bovine serum (Sigma-Aldrich, Bornem, Belgium) and 1 μg/ml of Puromycin to allow the selection of recombinant cell populations. Cell clones expressing the Gα16gustducin44 were selected and the clone presenting the best functional response of T2R38 to phenylthicarbamide was used for the study (see below).
(§1) The Peakrapid cell line expressing stably a chimeric Gα16gustducin44 G protein [21] was used. 40 000 cells were seeded in each well of a black/clear poly-D-lysine cellware pre-coated 96-well plate (Biocoat®, Becton-Dickinson, Erembodegem, Belgium) and transiently transfected with 50 ng of plasmid DNA containing the receptor sequence or not (empty vector) and with 50 ng of chaperone protein RTP4 per well. Forty hours after transfection, cells were incubated with the calcium-sensitive dye Fluo4 (Life Technologies, Oregon, USA) solubilized at 10 μg/ml in a buffer containing EMEM (150 mM NaCl, 5 mM KCl, 2 mM CaCl2, 1.2 mM MgCl2, 10 mM glucose), 10 mM HEPES, 0.01% (v/v) Pluronic F127, 0.1% (w/v) bovine serum albumin. After 1 h incubation at 37°C, cells were rinsed twice with the same buffer without Fluo4 and left in 50 μl buffer (prior ligand injection). Measurement were performed on a platform based on a motorized Axiobserver Z1 fluorescence microscope piloted by a Axiovision software (Zeiss, Jena, Germany) as described previously. For each selected well, images were taken 1 per second, during 30 seconds. 50 μl of the buffer containing the ligand twice concentrated was injected on the 2nd second of the time lapse record.
After time lapse record, the number of responding cells in each injected well was determined using ImageJ 1.34 (Rasband, W.S., ImageJ, National Institutes of Health, Bethesda, Maryland, USA, http://rsb.info.nih.gov/ij/1997-2004), and expressed as the percentage of the surface of a microscope field covered by activated cells with respect to the total surface of the field covered by confluent cells. Automated determination of the surface occupied by responding cells is easier to perform than a cell counting. The resulting percentage of positive surface provided a convenient estimation of the percentage of responding cells, as observed by comparing the percentage of positive surface and percentage of responsive cells determined by direct counting, in the same experiment. In agreement with the literature, the percentage of responding cells was proportional to the agonist concentration. During experiment in each plate, at least 2 wells were tested with phenylthiocarbamide (PTC) at 0.1 mM, which is one of the best characterized agonist of T2R38 in the literature. The activation of T2R38 by PTC allows normalization of the result of other tested molecules. The results were thus expressed as the percentage of PTC activation. […]

[1] = tested on: mock transfected cells (empty vector); assay: Single cell calcium imaging, control: mock transfected (empty vector) Peakrapid cells; type: cell-based, human
Experimental: as §1
After time lapse record, the number of responding cells in each injected well was determined using ImageJ 1.34 (Rasband, W.S., ImageJ, National Institutes of Health, Bethesda, Maryland, USA, http://rsb.info.nih.gov/ij/1997-2004), and expressed as the percentage of the surface of a microscope field covered by activated cells with respect to the total surface of the field covered by confluent cells. Automated determination of the surface occupied by responding cells is easier to perform than a cell counting. The resulting percentage of positive surface provided a convenient estimation of the percentage of responding cells, as observed by comparing the percentage of positive surface and percentage of responsive cells determined by direct counting, in the same experiment. In agreement with the literature, the percentage of responding cells was proportional to the agonist concentration. During experiment in each plate, at least 2 wells were tested with phenylthiocarbamide (PTC) at 0.1 mM, which is one of the best characterized agonist of T2R38 in the literature. The activation of T2R38 by PTC allows normalization of the result of other tested molecules. The results were thus expressed as the percentage of PTC activation. In scaling calcium imaging assays using this latter receptor, concentration-responses curves were performed and data were fitted to a four parameter logistic equation: y=min+ (max− min)/1+10 ^(logEC50−x)nH . Min and max are the minimum and the maximum values of the percentage of cell-activated surface respectively, y is the percentage of cell-activated surface at the x concentration and nH is the Hill coefficient.

[2] = 2mM (no organic solvent), listed as HSL-C4
[3] = 2mM in DMSO 1.5%, listed as HSL-C4
[4] = 2mM in EtOH 0,4%, listed as HSL-C4
[5] = 1mM in DMSO 1.5%, listed as HSL-C12
[6] = 1mM in EtOH 2%, listed as HSL-C12

SMILES: CCCC(=O)N[C@H]1CCOC1=O [C4HSL, N-butyryl-L-homoserine lactone, reference compound]
agonist activity on T2R38 (in words) (T2R38): are not agonists of the receptor in our hands
percentage of surface covered by activated cells (T2R38; [2]): 0.38% and 0.93% and 0.34% and 0.53% and 0.11% and 0.17%
percentage of surface covered by activated cells (T2R38; [3]): 6.92% and 3.48% and 5.97% and 2.36% and 9.56% and 4.46%
percentage of surface covered by activated cells (T2R38; [4]): 0.27% and 1.95% and 2.21% and 0.24% and 0.29% and 1.29%
average calcium response, % of the one induced by 0.1 mM of PTC (T2R38): 33%
specific activation of T2R38 (T2R38): did not trigger a specific activation of T2R38
specific activation of T2R38 (T2R38; listed as HSLC4): remained without effect on the receptor
response of T2R38 (T2R38): did not elicit a response of T2R38
response of T2R38 (T2R38; listed as HSLC4): remained without effect on the receptor
percentage of surface covered by activated cells [1, 2]: 0.08% and 2.07% and 0.35% and 0.32% and 0.65% and 0.13%
percentage of surface covered by activated cells [1, 3]: 0.56% and 1.82% and 1.06% and 0.36% and 0.33% and 0.98%
percentage of surface covered by activated cells [1, 4]: 0.40% and 0.69% and 0.43% and 0.56% and 1.49% and 0.68%

percentage of surface covered by activated cells (T2R38; 0.1mM in DMSO 0.15%): 0.46% and 1.07% and 1.52% and 0.39%
percentage of surface covered by activated cells (T2R38; 0.1mM in DMSO 0.3%): 0.20% and 0.64% and 1.46% and 0.93%
average calcium response, % of the one induced by 0.1 mM of PTC (T2R38): 42%
specific activation of T2R38 (T2R38; listed as HSLC12): remained without effect on the receptor
SMILES: CCCCCCCCCC(=O)CC(=O)N[C@H]1CCOC1=O [C12HSL, N-3-oxo-dodecanoyl-L-homoserine lactone, reference compound]
agonist activity on T2R38 (in words) (T2R38): are not agonists of the receptor in our hands
specific activation of the receptor (T2R38; 0.1 mM with either 0.3% or 0.15% DMSO in the incubation buffer): did not trigger any specific activation of the receptor; also recorded: did not trigger any specific activation of T2R38
percentage of surface covered by activated cells (T2R38; [5]): 8.51% and 3.40% and 8.12% and 5.47% and 4.84% and 9.74%
percentage of surface covered by activated cells (T2R38; [6]): 2.04% and 1.92% and 1.33% and 4.51% and 5.83% and 3.09%
specific activation of T2R38 (T2R38): did not trigger a specific activation of T2R38
percentage of surface covered by activated cells ([1]; 0.1mM in DMSO 0.15%): 0.22% and 0.19%
percentage of surface covered by activated cells ([1]; 0.1mM in DMSO 0.3%): 0.00881% and 0.16%
percentage of surface covered by activated cells [1, 5]: 0.92% and 1.51% and 1.40% and 0.48% and 0.97% and 3.05%
percentage of surface covered by activated cells [1, 6]: 0.58% and 7.03% and 2.23% and 2.90% and 5.38% and 0.28%

SMILES: NC(=S)Nc1ccccc1 [PTC, phenylthiocarbamide, reference compound]
percentage of surface covered by activated cells (T2R38; PTC 1e-7 M): 0.32% and 0.0439% and 0.30% and 0.38% and 0.0433% and 0.37%
percentage of surface covered by activated cells (T2R38; PTC 5.31987e-7 M): 0.29% and 0.21% and 0.40% and 0.74%
percentage of surface covered by activated cells (T2R38; PTC 7.66061e-7 M): 0.42% and 0.94% and 0.57%
percentage of surface covered by activated cells (T2R38; PTC 1e-6 M): 0.15% and 0.33% and 0.74% and 1.61% and 0.19% and 0.16%
percentage of surface covered by activated cells (T2R38; PTC 3.16456e-6 M): 0.91% and 1.80% and 0.81% and 1.93% and 1.12% and 1.19%
percentage of surface covered by activated cells (T2R38; PTC 1e-5 M): 9.30% and 8.69% and 5.20% and 5.77% and 8.28% and 3.33%
percentage of surface covered by activated cells (T2R38; PTC 0.0001 M): 16.96% and 16.52% and 12.58% and 13.19% and 14.04% and 11.95%
response of T2R38 PAV transfected cells (S7_fig raw data) (T2R38; PTC 0.1 mM, T2R38 PAV, experiments 1-5): 30% and 29% and 24% and 17% and 23%
percentage of surface covered by activated cells (T2R38; PTC 0.001 M): 16.18% and 8.32% and 10.10% and 7.45% and 11.65% and 8.92%
EC50 (T2R38; mean ± SEM of n = 3 experiments): 9.7 ± 0.4 µM
percentage of surface covered by activated cells ([1]; PTC 1e-7 M): 0.29% and 0.31% and 0.20%
percentage of surface covered by activated cells ([1]; PTC 5.31987e-7 M): 0.69% and 0.47%
percentage of surface covered by activated cells ([1]; PTC 7.66061e-7 M): 0.32% and 0.90%
percentage of surface covered by activated cells ([1]; PTC 1e-6 M): 0.45% and 0.40% and 0.59%
percentage of surface covered by activated cells ([1]; PTC 3.16456e-6 M): 0.30% and 0.15% and 0.74%
percentage of surface covered by activated cells ([1]; PTC 1e-5 M): 0.11% and 0.26% and 0.07%
percentage of surface covered by activated cells ([1]; PTC 0.0001 M): 0.06% and 0.11%
response of empty vector transfected cells (S7_fig raw data) ([1]; PTC 0.1 mM, empty vector, experiments 1-5): 0.078% and 0.55% and 0.518% and 0.35% and 0.26%
percentage of surface covered by activated cells ([1]; PTC 0.001 M): 0.59% and 0.12% and 0.20%

SMILES: CSSC [dimethyldisulfide, dimethyl disulfide]
agonist activity on T2R38 (in words) (T2R38): able to specifically trigger this receptor
EC50 (T2R38): 3000 µM
surface covered by activated cells (given as fraction) (T2R38; dimethyldisulfide 0.000251189, log10[ ] -3.6, experiment 6): 0.0087 and 0.0151
surface covered by activated cells (given as fraction) (T2R38; dimethyldisulfide 0.000398107, log10[ ] -3.4, experiment 6): 0.0033 and 0.0066
surface covered by activated cells (given as fraction) (T2R38; dimethyldisulfide 0.000630957, log10[ ] -3.2, experiment 6): 0.0100 and 0.0078
surface covered by activated cells (given as fraction) (T2R38; dimethyldisulfide 0.001, log10[ ] -3, experiment 6): 0.0079 and 0.0134
surface covered by activated cells (given as fraction) (T2R38; dimethyldisulfide 0.00158489, log10[ ] -2.8, experiment 6): 0.0310 and 0.0369
surface covered by activated cells (given as fraction) (T2R38; dimethyldisulfide 0.00398107, log10[ ] -2.4, experiment 6): 0.1269
logEC50 (T2R38; given in the concentration-response curve): -2.54
Emax (% of positive control) (T2R38; percentage of the response elicited by 0.1 mM PTC): 46 % of positive control
percentage of surface covered by activated cells ([1]; dimethyldisulfide 0.00251189, log10[ ] -2.6): 0.21% and 0.13% and 0.27% and 1.93% and 1.05% and 0.36% and 1.26%
